{"source": "patent US20220064195A1", "about": "“SYNTHETIC I2 IMIDAZOLINE RECEPTOR LIGANDS FOR PREVENTION OR TREATMENT OF HUMAN BRAIN DISORDERS” (Universitat de Barcelona, priority 2018, published 2022)", "key": {"I2-IR": {"molecular_target": "I2-IR", "assay": "Competition binding against the selective I2-IR radioligand [3H]-2-BFI in membranes from post-mortem human frontal cortex", "settings": "membranes from post-mortem human frontal cortex; radioligand [3H]-2-BFI"}, "[1]": {"assay": "Dissolution of test compounds noted in the PAMPA-BBB assay (PBS:EtOH 70:30)", "assay_type": "physicochemical", "set-up": "key: *= poor dissolution", "experimental": "(§1) To evaluate the brain penetration of the different compounds, a parallel artificial membrane permeation assay for blood-brain barrier was used, following the method described by Di et al. (cf. Table 2). The in vitro permeability (Pe) of fourteen commercial drugs through lipid extract of porcine brain membrane together with the test compounds were determined. Commercial drugs and assayed compounds were tested using a mixture of PBS:EtOH (70:30)."}, "[2]": {"settings": "predictive penetration in the CNS from PAMPA-BBB Pe", "experimental": "as §1"}, "in vitro": {"assay": "in vitro", "settings": "pig, PAMPA", "experimental": "as §1"}, "II-6 [3]": {"system": "II-6", "assay": "Gene expression of inflammatory marker II-6 by real-time PCR in SAMP8 mice", "experimental": "(§2) Total RNA isolation was carried out by means of Trizol reagent following manufacturer's instructions. […] Samples were also tested in an Agilent 2100B Bioanalyzer (Agilent Technologies) to determine the RNA integrity number. Reverse Transcription-Polymerase Chain Reaction (RT-PCR) was performed as follows: 2 μg of messenger RNA (mRNA) was reverse-transcribed using the High Capacity complementary DNA (cDNA) Reverse Transcription Kit (Applied Biosystems). Normalization of expression levels was performed with actin. SYBER Green, real-time PCR was performed in the Step One Plus Detection System (Applied Biosystems) employing the SYBR Green PCR Master Mix. Each reaction mixture contained 7.5 μL of cDNA, whose concentration was 2 μg, 0.75 μL of each primer (whose concentration was 100 nM), and 7.5 μL of SYBR Green PCR Master Mix (2×). Data were analyzed utilizing the comparative Cycle threshold (Ct) method (Fold Change), where the actin transcript level was used to normalize differences in sample loading and preparation. Each sample (n=4-5) was analyzed in triplicate, and results represented the n-fold difference of transcript levels among different samples."}, "Cxcl10 [4]": {"system": "Cxcl10", "assay": "Gene expression of inflammatory marker Cxcl10 by real-time PCR in SAMP8 mice", "experimental": "as §2"}, "5XFAD mice": {"system": "5XFAD mice", "assay": "Novel Object Recognition Test (NORT) in 5XFAD mice", "experimental": "(§3) Mice were placed in a 90°, two-arm, 25-cm-long, 20-cm-high, 5-cm-wide black maze. The walls could be lifted off for easy cleaning. Light intensity in the middle of the field was 30 lux. The objects to be discriminated were made of plastic and were chosen not to frighten the mice, and objects with parts that could be bitten were avoided. Before performing the test, the mice were individually habituated to the apparatus for 10 min during 3 days. On day 4, the animals were submitted to a 10-min acquisition trial (first trial), during which they were placed in the maze in the presence of two identical, novel objects (A+A or B+B) at the end of each arm. A 10-min retention trial (second trial) was carried out 2 h later. During this second trial, objects A and B were placed in the maze and the behavior of the mice was recorded with a camera. Time that the mice explored the new object (TN) and Time that the mice explored the Old object (TO) were measured. A Discrimination Index (DI) was defined as (TN−TO)/(TN+TO). In order to avoid object preference biases, A and B were counterbalanced so that one half of the animals in each experimental group were exposed first to A and then to B, whereas the remaining half saw B first and then A. The maze and the objects were cleaned with 70° ethanol after each test in order to eliminate olfactory cues."}, "II-6 [5]": {"system": "II-6", "assay": "Gene expression of inflammatory marker II-6 by real-time PCR in 5XFAD mice", "settings": "5×FAD", "experimental": "as §2"}, "SAMP8 mice": {"system": "SAMP8 mice", "assay": "Novel Object Recognition Test (NORT) in SAMP8 mice", "experimental": "as §3"}, "Cxcl10 [6]": {"system": "Cxcl10", "assay": "Gene expression of inflammatory marker Cxcl10 by real-time PCR in 5XFAD mice", "settings": "5×FAD", "experimental": "as §2"}}, "note": "“Also recorded” adds a separate entry of the source.", "data": [{"smiles": "CCOP(=O)(OCC)[C@]1(c2ccccc2)N=C[C@H]2C(=O)N(c3cccc([N+](=O)[O-])c3)C(=O)[C@H]21", "note": "(racemic) [Compound I-28, Diethyl (1RS,3aSR,6aSR)-5-(3-nitrophenyl)-4,6-dioxo-1-phenyl-1,3a,4,5,6,6a-hexahydropyrrolo[3,4-c]pyrrole-1-phosphonate]", "values": [{"measurement": "[^3H]-2-BFI I2 binding affinity (pKi)", "setting": "I2-IR", "result": "6.81 ± 0.27"}, {"measurement": "dissolution", "setting": "[1]", "result": "I-28*"}, {"measurement": "CNS Prediction", "setting": "[2]", "result": "CNS+/− (compounds of uncertain BBB permeation (CNS+/−): 5,179>Pe (10^−6 cm s^−1)>2,083)"}, {"measurement": "Papp", "setting": "in vitro", "result": "4.5 ± 0.25", "unit": "×10⁻⁶ cm/s"}]}, {"smiles": "CCOP(=O)(OCC)[C@]1(c2ccccc2)N=C[C@H]2C(=O)N(c3cccc(Cl)c3)C(=O)[C@H]21", "note": "(racemic) [Compound I-53, Diethyl (1RS,3aSR,6aSR)-5-(3-chlorophenyl)-4,6-dioxo-1-phenyl-1,3a,4,5,6,6a-hexahydropyrrolo[3,4-c]pyrrole-1-phosphonate]", "values": [{"measurement": "dissolution", "setting": "[1]", "result": "I-53*"}, {"measurement": "CNS Prediction", "setting": "[2]", "result": "CNS+/− (compounds of uncertain BBB permeation (CNS+/−): 5,179>Pe (10^−6 cm s^−1)>2,083)"}, {"measurement": "Papp", "setting": "in vitro", "result": "3.7 ± 0.1", "unit": "×10⁻⁶ cm/s"}]}, {"smiles": "CCOP(=O)(OCC)[C@]1(c2ccccc2)N=C[C@H]2C(=O)N(c3ccc(Br)cc3)C(=O)[C@H]21", "note": "(racemic) [Compound I-47, Diethyl (1RS,3aSR,6aSR)-5-(4-bromophenyl)-4,6-dioxo-1-phenyl-1,3a,4,5,6,6a-hexahydropyrrolo[3,4-c]pyrrole-1-phosphonate]", "values": [{"measurement": "dissolution", "setting": "[1]", "result": "I-47*"}, {"measurement": "CNS Prediction", "setting": "[2]", "result": "CNS+/− (compounds of uncertain BBB permeation (CNS+/−): 5,179>Pe (10^−6 cm s^−1)>2,083)"}, {"measurement": "Papp", "setting": "in vitro", "result": "4.4 ± 0.4", "unit": "×10⁻⁶ cm/s"}]}, {"smiles": "CCOP(=O)(OCC)[C@]1(c2ccccc2)N=C[C@H]2C(=O)N(c3ccc(F)c(Cl)c3)C(=O)[C@H]21", "note": "(racemic) [Compound I-06, Diethyl (1RS,3aSR,6aSR)-5-(3-chloro-4-fluorophenyl)-4,6-dioxo-1-phenyl-1,3a,4,5,6,6a-hexahydropyrrolo[3,4-c]pyrrole-1-phosphonate]", "values": [{"measurement": "II-6 marker of neuroinflammation, gene expression in brain (in words)", "setting": "II-6 [3]", "result": "reduced"}, {"measurement": "Cxcl10 marker of neuroinflammation, gene expression in brain (in words)", "setting": "Cxcl10 [4]", "result": "reduced"}, {"measurement": "cognitive / memory effect in NORT (in words)", "setting": "5XFAD mice; 5XFAD mice, treated group compared to the control", "result": "recovered DI levels of the Wild Type (Wt) control group; also recorded: improves cognitive abilities"}, {"measurement": "DI (−1, 1) NORT 2 h", "setting": "5XFAD mice; female 5XFAD mice at 6 months, 5 mg/kg, retention 2 h", "result": "0.199 ± 0.053"}, {"measurement": "DI (−1, 1) NORT 24 h", "setting": "5XFAD mice; female 5XFAD mice at 6 months, 5 mg/kg, retention 24 h", "result": "0.229 ± 0.051"}, {"measurement": "II-6 marker of neuroinflammation, gene expression in brain (in words)", "setting": "II-6 [5]", "result": "reduced"}, {"measurement": "CNS Prediction", "setting": "[2]", "result": "CNS+ (compounds of high BBB permeation (CNS+): Pe (10^−6 cm s^−1)>5,179)"}, {"measurement": "Papp", "setting": "in vitro", "result": "9.7 ± 0.7", "unit": "×10⁻⁶ cm/s"}, {"measurement": "cognitive / memory effect in NORT (in words)", "setting": "SAMP8 mice; SAMP8 mice, treated group compared to the control", "result": "reduced memory deficits; also recorded: improves cognitive abilities"}, {"measurement": "DI (−1, 1) NORT 2 h", "setting": "SAMP8 mice; female SAMP8 mice at 12 months, 5 mg/kg, retention 2 h, mean ± SEM", "result": "0.33 ± 0.071"}, {"measurement": "DI (−1, 1) NORT 24 h", "setting": "SAMP8 mice; female SAMP8 mice at 12 months, 5 mg/kg, retention 24 h", "result": "0.273 ± 0.042"}, {"measurement": "Cxcl10 marker of neuroinflammation, gene expression in brain (in words)", "setting": "Cxcl10 [6]", "result": "reduced"}]}, {"smiles": "CCOP(=O)(OCC)[C@]1(c2ccccc2)N=C[C@H]2C(=O)N(c3cc([N+](=O)[O-])ccc3C)C(=O)[C@H]21", "note": "(racemic) [Compound I-50, Diethyl (1RS,3aSR,6aSR)-5-(2-methyl-5-nitrophenyl)-4,6-dioxo-1-phenyl-1,3a,4,5,6,6a-hexahydropyrrolo[3,4-c]pyrrole-1-phosphonate]", "values": [{"measurement": "dissolution", "setting": "[1]", "result": "I-50*"}, {"measurement": "CNS Prediction", "setting": "[2]", "result": "CNS− (compounds of low BBB permeation (CNS−): Pe (10^−6 cm s^−1)<2,083)"}, {"measurement": "Papp", "setting": "in vitro", "result": "1.4 ± 0.04", "unit": "×10⁻⁶ cm/s"}]}, {"smiles": "CCOP(=O)(OCC)[C@]1(c2ccccc2)N=C[C@H]2C(=O)N(Cc3ccccc3)C(=O)[C@H]21", "note": "(racemic) [Compound I-29, Diethyl (1RS,3aSR,6aSR)-5-benzyl-4,6-dioxo-1-phenyl-1,3a,4,5,6,6a-hexahydropyrrolo[3,4-c]pyrrole-1-phosphonate]", "values": [{"measurement": "[^3H]-2-BFI I2 binding affinity (pKi)", "setting": "I2-IR", "result": "5.26 ± 0.22"}, {"measurement": "dissolution", "setting": "[1]", "result": "I-29*"}, {"measurement": "CNS Prediction", "setting": "[2]", "result": "CNS+ (compounds of high BBB permeation (CNS+): Pe (10^−6 cm s^−1)>5,179)"}, {"measurement": "Papp", "setting": "in vitro", "result": "> 30", "unit": "×10⁻⁶ cm/s"}]}, {"smiles": "O=C1[C@@H]2[C@@H](C=N[C@@]2(c2ccccc2)P(=O)(Oc2ccccc2)Oc2ccccc2)C(=O)N1c1ccccc1", "note": "(racemic) [Compound I-26, Diphenyl (1RS,3aSR,6aSR)-4,6-dioxo-1,5-diphenyl-1,3a,4,5,6,6a-hexahydropyrrolo[3,4-c]pyrrole-1-phosphonate]", "values": [{"measurement": "[^3H]-2-BFI I2 binding affinity (pKi)", "setting": "I2-IR", "result": "5.86 ± 1.22"}, {"measurement": "dissolution", "setting": "[1]", "result": "I-26*"}, {"measurement": "CNS Prediction", "setting": "[2]", "result": "CNS+/− (compounds of uncertain BBB permeation (CNS+/−): 5,179>Pe (10^−6 cm s^−1)>2,083)"}, {"measurement": "Papp", "setting": "in vitro", "result": "2.3 ± 0.04", "unit": "×10⁻⁶ cm/s"}]}]}
